{
  "source": "patent US20090053138A1",
  "about": "“Stabilized Aptamers to Platelet Derived Growth Factor and their Use as Oncology Therapeutics” (priority 2002, published 2009)",
  "key": {"PDGF AB": {"molecular_target": "PDGF AB (Homo sapiens, UniProt P01127)", "sequence (P01127 82-190 limits assumed, other chains not shown)": "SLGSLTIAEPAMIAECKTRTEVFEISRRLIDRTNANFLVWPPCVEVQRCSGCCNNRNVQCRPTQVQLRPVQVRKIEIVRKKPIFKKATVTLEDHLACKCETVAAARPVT", "assay": "Binding of ARC124 to PDGF AB"}, "PDGF BB": {"molecular_target": "PDGF BB (Homo sapiens, UniProt P01127)", "sequence (P01127 82-190 limits assumed)": "as the sequence (P01127 82-190 limits assumed, other chains not shown) above", "assay": "Binding of ARC124 to PDGF BB"}, "[1]": {"test_system": "HT29 colon cancer xenograft", "assay": "HT29 colon cancer xenograft model", "type": "in vivo, Nu/Nu mice", "settings": "GLEEVEC 50 mg/kg orally BID Qd5 + irinotecan 150 mg/kg weekly vs irinotecan alone"}, "[2]": {"test_system": "LS174T colon cancer xenograft", "settings": "Monday through Friday", "excerpt": "Experimental overview. Human HT-29 or LS174T colon cancer xenotransplants were established in athymic nude mice (Nu/Nu mice, Charles River Labs, Wilmington, Mass.) by injecting mice with 1×10^7 HT29 cells (ATCC, Manassas, Va.), or 2×10^6 LS174T cells (ATCC Manassas, Va.) sub-cutaneously and allowing the tumors to grow for 5 days. On day 5, two dimensional measurements of the established tumors were taken using a digital caliper. Once tumor measurements were taken, the mice were randomized into groups such that the average tumor size was the same in each group. […]\nA third experiment (Experiment 3) was designed to test ARC308/irinotecan and GLEEVEC™/irinotecan dosing regimens in a colon cancer xenotransplant model using human colon carcinoma cell line LS174T (ATCC). […] ARC308 was dosed via intraperitoneal delivery at 50 mg/kg once daily, and GLEEVEC™ was dosed at 50 mg/kg once daily, Monday through Friday. ARC308 prevents PDGF-BB from binding the PDGF receptor; this molecule has a 30K PEG attached. […] The results are statistically significant (two tailed students T-test).\nAn efficacy analysis of three treatment groups in this study is shown in Table 10 in terms of log cell kill and log cell kill net. Log cell kill is the log(base10) of the number of tumor cells before treatment divided by the number of cells after treatment. […] A fourth experiment (Experiment 4) was designed to further test ARC308/irinotecan dosing regimens in a colon cancer xenotransplant model using human colon carcinoma cell line LS174T (ATCC). […]"}, "HCT-116 tumor": {"test_system": "HCT-116 tumor", "settings": "irinotecan 100 mg/kg plus Gleevec 50 mg/kg orally twice a day", "description": "Each group was assigned to a treatment regimen as follows. […] Doses were adjusted for changing body weight twice per week and all mice were dosed with vehicle or aptamer at 10 ml of dosing solution per kg body weight given intraperitoneally. […] Groups 3, 10 and 11 were dosed with vehicle intraperitinoneally once per day from days 8-25. Groups 3, 5, 7, 8, and 9 were dosed on day 11, 18 and 25 with irintoecan (100 mg/kg, intraperitoneally). […] Group 11 was dosed on day 11 and 25 with irintoecan (100 mg/kg, intraperitoneally) and twice a day with imatinib at 50 mg/kg given orally on days 8-12 and 23-25.\nThe aptamer was allowed to come to room temperature for an hour before dosing. Unused material was stored at 4° C. for use the next day. Normal saline for the vehicle control was sterile filtered into sample vials and stored in the same manner as the aptamer dosing solutions. Aptamer and vehicle dosing solutions were coded so that the personnel dosing were blinded from their identity."}},
  "note": "[invdT] = inverted (3'-3') thymidine",
  "data": [
    {"compound": "5′ CACAGGCTACGGCACGTAGAGCATCACCATGATCCTGTG-3′InvdT (SEQ ID NO:11) (DNA, 3' [invdT], backbone not given here) [ARC124]", "values": [
      {"measurement": "Kd", "setting": "PDGF AB", "result": "~0.1", "unit": "nM"},
      {"measurement": "Kd", "setting": "PDGF BB", "result": "~0.1", "unit": "nM"}
    ]},
    {"compound": "Cc1ccc(NC(=O)c2ccc(CN3CCN(C)CC3)cc2)cc1Nc1nccc(-c2cccnc2)n1", "note": "[GLEEVEC™, imatinib, reference compound]", "values": [
      {"measurement": "efficacy of irinotecan (rate of tumor growth)", "setting": "[1]", "result": "enhanced the efficacy of irinotecan treatment"},
      {"measurement": "tolerability of dosing regimen", "setting": "[2]; Experiment 2: GLEEVEC 100 mg/kg once daily, P.O.", "result": "made the animals moribund"},
      {"measurement": "efficacy of irinotecan (rate of tumor growth)", "setting": "[2]; Experiment 3: GLEEVEC 50 mg/kg once daily, P.O + irinotecan", "result": "did not enhance the efficacy of Irinotecan"},
      {"measurement": "mice dead by day 17", "setting": "HCT-116 tumor", "result": "4 of 12"}
    ]}
  ]
}
